Publication PMC6985712 (Antimicrobial Agents and Chemotherapy, 2020)
Where two headings read alike, the source gives them in different places.

Tests used:
[1] = molecular target: T1, KPC-2 (Klebsiella pneumoniae, UniProt Q9F663); assay: Stability of inhibitor after incubation with KPC-2, LC/MS; assay type: biochemical; conditions: for degradation/hydrolysis of inhibitor by KPC-2: 1 µM inhibitor and 1 µM KPC-2, 37 °C, reaction buffer, 18 hours, LC/MS
[2] = molecular target: T1, KPC-2; assay: k2/K inactivation constant, reporter substrate method; assay type: biochemical
Protocol: Inactivation kinetic parameters were determined by using the reporter substrate method for the slow tight-binding inhibitor kinetic scheme ([38]). E + I ↔K EI ↔k−2k2 EI*
(§1) Protein was quickly mixed with 100 μM nitrocefin and various concentrations of BLI in reaction buffer, and the absorbance at 490 nm was measured immediately every 2 s for 180 s on a SpectraMax plate reader (Molecular Devices, San Jose, CA) at 37°C. The resulting progression curves of OD490 versus time at various BLI concentrations were imported into Prism software (GraphPad, San Diego, CA), and pseudo first-order rate constants kobs were calculated by using the following equation: P = Vs ⋅ (1 – e^–^k^obs ⋅ ^t)/kobs, where Vs is the enzyme NCF cleavage rate in the absence of BLI.

[3] = test system: ADC-7, KPC-2, and SHV-1; design: method as in PMID 26729491, PMID 26729496; conditions: cited from earlier work
[4] = molecular target: T2, SME-2 (Serratia marcescens, UniProt P52682, V207Q); assay: koff of enzyme activity recovery, jump dilution method; assay type: biochemical, S. marcescens
Protocol: (§2) After appropriate dilution, 100 μM NCF was added to the reaction mixture, and absorbance at 490 nm was recorded every 10 s using a plate reader. The reaction without the addition of BLI was also recorded and used to calculate uninhibited enzyme velocity Vs.
(§3) Purified enzyme at 1 μM in reaction buffer was mixed with BLIs at an 8-fold higher concentration than its stoichiometry ratio (determined in preliminary stoichiometry experiments). After 30 min incubation at 37°C, the reaction mixture was diluted from 100- to 30,000-fold depending on the enzyme in reaction buffer, and 100 μl of diluted enzyme was mixed with 100 μl of 400 μM NCF in reaction buffer. The absorbance at 490 nm was recorded every minute during 4 h at 37°C.

[5] = molecular target: T3, AmpC (Enterobacter cloacae, UniProt P05364); assay: Kiapp determination with nitrocefin (method of Waley); assay type: biochemical; conditions: recombinant His-tagged enzyme; 10 min incubation at 37°C; 50 μM NCF
T3 construct: His tag; purchased Emerald Biostructures (Bainbridge Island, WA)
Protocol: (§4) The protein was mixed with various concentrations of inhibitors in 50 mM sodium phosphate (pH 7.0) and 0.1 mg/ml of bovine serum albumin buffer (reaction buffer), followed by incubation for 10 min at 37°C. Next, 50 μM nitrocefin (NCF; 10 μM for SHV-12 and 25 μM for BKC-1) was added, and substrate cleavage profiles were recorded at 490 nm every 10 s for 10 min. […] Kiapp values were calculated by method of Waley ([24]).

[6] = molecular target: T4, SHV-12 (Klebsiella pneumoniae, UniProt P0AD64, E235K/G234S/L31Q); assay: as above; assay type: biochemical; conditions: recombinant His-tagged enzyme; 10 min incubation at 37°C; 10 μM NCF
T4 construct: His tag; purchased Emerald Biostructures (Bainbridge Island, WA)
Protocol: as §4

[7] = molecular target: T5, KPC-3 (Klebsiella pneumoniae, UniProt Q9F663, H272Y); assay: as above; assay type: biochemical; conditions: recombinant His-tagged enzyme; 10 min incubation at 37°C; 50 μM NCF
Protocol: as §4

[8] = molecular target: T6, BKC-1 (Klebsiella pneumoniae, UniProt A0A0F6QEY8); assay: as above; assay type: biochemical; conditions: recombinant His-tagged enzyme; 10 min incubation at 37°C; 25 μM NCF
Protocol: as §4

[9] = molecular target: T7, NDM-1 (Klebsiella pneumoniae, UniProt C7C422); assay: as above; assay type: biochemical
T7 construct: His tag; purchased Emerald Biostructures (Bainbridge Island, WA)
Protocol: as §4

[10] = molecular target: T8, CTX-M-14 (Escherichia coli, UniProt Q9L5C7); assay: as above; assay type: biochemical; conditions: recombinant His-tagged enzyme; 10 min incubation at 37°C; 50 μM NCF
T8 construct: His tag; purchased Emerald Biostructures (Bainbridge Island, WA)
Protocol: as §4

[11] = molecular target: T9, FRI-1 (Enterobacter cloacae, UniProt A0A0M5L4T8); assay: as above; assay type: biochemical; conditions: recombinant His-tagged enzyme; 10 min incubation at 37°C; 50 μM NCF
Protocol: as §4

[12] = molecular target: T1, KPC-2; assay: as above; assay type: biochemical; conditions: recombinant His-tagged enzyme; 10 min incubation at 37°C; 50 μM NCF
Protocol: as §4

[13] = molecular target: T10, CTX-M-15 (Escherichia coli, UniProt Q9EXV5); assay: as above; assay type: biochemical; conditions: recombinant His-tagged enzyme; 10 min incubation at 37°C; 50 μM NCF
T10 construct: His tag; purchased Emerald Biostructures (Bainbridge Island, WA)
Protocol: as §4

[14] = molecular target: OXA-23 (Acinetobacter baumannii, UniProt Q9L4P2); assay: as above; assay type: biochemical; conditions: recombinant His-tagged enzyme; 10 min incubation at 37°C; 50 μM NCF
Protocol: as §4

[15] = molecular target: T11, VIM-1 (Pseudomonas aeruginosa, UniProt A0A0F7KYQ8); assay: as above; assay type: biochemical
T11 construct: His tag; purchased Emerald Biostructures (Bainbridge Island, WA)
Protocol: as §4

[16] = molecular target: T12, OXA-48 (Klebsiella pneumoniae, UniProt Q6XEC0); assay: as above; assay type: biochemical; conditions: recombinant His-tagged enzyme; 10 min incubation at 37°C; 50 μM NCF
T12 construct: His tag; purchased Emerald Biostructures (Bainbridge Island, WA)
Protocol: as §4

[17] = molecular target: T4, SHV-12; assay: Inactivation kinetic profile, reporter substrate method; assay type: biochemical; conditions: precluded k2/K calculation
Protocol: as §1

[18] = molecular target: TEM-43 (Escherichia coli, UniProt P62593, E102K/M180T/R162H); assay: as above; assay type: biochemical; conditions: precluded k2/K calculation
Protocol: as §1

[19] = molecular target: T2, SME-2; assay: Kiapp determination with nitrocefin (method of Waley); assay type: biochemical, S. marcescens; conditions: recombinant His-tagged enzyme; 10 min incubation at 37°C; 50 μM NCF
Protocol: as §4

[20] = molecular target: T3, AmpC; assay: koff of enzyme activity recovery, jump dilution method; assay type: biochemical; conditions: calculated using k2/K and koff
Protocol: as §2, §3

[21] = molecular target: T5, KPC-3; assay: as above; assay type: biochemical
Protocol: as §2, §3

[22] = molecular target: T6, BKC-1; assay: as above; assay type: biochemical; conditions: calculated using k2/K and koff
Protocol: as §2, §3

[23] = molecular target: T9, FRI-1; assay: as above; assay type: biochemical; conditions: calculated using k2/K and koff
Protocol: as §2, §3

[24] = molecular target: T1, KPC-2; assay: as above; assay type: biochemical; conditions: calculated using k2/K and koff
Protocol: as §2, §3

[25] = molecular target: T10, CTX-M-15; assay: as above; assay type: biochemical; conditions: calculated using k2/K and koff
Protocol: as §2, §3

[26] = 1.2 nM KPC-2, 100 μM NCF reporter substrate
[27] = recombinant His-tagged enzyme, 10 min incubation at 37°C, 50 μM NCF

SMILES: C[C@]1(Cn2ccnn2)[C@H](C(=O)O)N2C(=O)C[C@H]2S1(=O)=O [tazobactam, reference compound]
- degradation of inhibitor by KPC-2 ([1]; same conditions, in 1 hour (data not shown)): completely degraded
- KPC-2 inactivation kinetic profile [2, 26]: progressive enzyme activity inactivation

SMILES: O=C(Cc1cccs1)N[C@@H](Cn1cc(C(=O)O)nn1)B(O)O [S02030]
- potency (in words) [3]: nanomolar potency

SMILES: O=Cc1ccccc1B(O)O [2-formylphenylboronic acid]
- KPC-2 inactivation kinetic profile [2, 26]: linear KPC-2 inactivation profile

SMILES: Cc1cccc(B(O)O)c1 [m-tolylboronic acid]
- KPC-2 inactivation kinetic profile [2]: linear KPC-2 inactivation profile

SMILES: O=C(O)C[C@@H]1CC[C@H](NC(=O)Cc2cccs2)B(O)O1 [vaborbactam]
- degradation/hydrolysis of inhibitor by KPC-2 [1]: no degradation
- degradation/hydrolysis of inhibitor by KPC-2 ([1]; listed as Vaborbactam): not hydrolyzed
- Kd [4]: 47 nM
- Ki [5]: 35 ± 15 nM
- Ki [6]: 21 ± 4 nM
- Ki [7]: 50 ± 16 nM
- Ki [8]: 18 ± 2 nM
- inhibition of enzyme (in words) ([9]; class B metalloenzyme): No inhibition
- Ki [9, 27]: > 160000 nM
- Ki [10]: 33 ± 13 nM
- Ki [11]: 170 ± 60 nM
- Ki [12]: 56 ± 15 nM
- Ki [13]: 30 ± 4 nM
- Ki [14]: 66000 ± 11000 nM
- inhibition of enzyme (in words) ([15]; class B metalloenzyme): No inhibition
- Ki [15, 27]: > 160000 nM
- Ki [16]: 14000 ± 5000 nM
- inactivation kinetic profile [17]: linear inactivation profiles
- inactivation kinetic profile [18]: linear inactivation profiles
- KPC-2 inactivation kinetic profile [2, 26]: slow onset of inhibition and nonlinear reaction profiles
- Ki [19]: 42 ± 5 nM
- Kd [20]: 220 nM
- Kd [21]: 4.4 nM
- Kd [22]: 33 nM
- Kd [23]: 509 nM
- Kd [24]: 7.8 nM
- Kd [25]: 40 nM
